Values after ≈ are worked out from the molar mass of the structure shown. Numbered stars: 1 amine (or outer) side, 2 acyl side, 3 side chain; on linkers, the order of the positions; unused ones are H or OH. Bridge positions count the residues as written; N and C are the ends. Square brackets hold non-standard residues; d marks the D form. Peptide text beside a SMILES is read from it. * marks the point of attachment. ξ: configuration not given here. Octanoyl(6-Me) = CCC(C)CCCCC(=O)*; ξGly(octyl) = CCCCCCCCC(N)C(=O)O; NH(2-ClPh) = Clc1ccccc1N*; Octanoyl = CCCCCCCC(=O)*; Dab = NCC[C@H](N)C(=O)O; CO = O=C([*:1])[*:2]
Columns and labels:
HepG2 = details: CC50 HepG2 (µM)
A. baumannii ATCC 19606 [1] = details: MIC A. baumannii ATCC 19606 (µg/mL)
[2] = tested on: P. aeruginosa FADDI-PA070, PmxR; details: MIC P. aeruginosa FADDI-PA070, PmxR (µg/mL)
[3] = tested on: K. pneumoniae CI Koprana 100650661:1, PmxR; details: MIC K. pneumoniae CI Koprana 100650661:1, PmxR (µg/mL)
[4] = tested on: K. pneumoniae CI 138-16357-20362, PmxR; details: MIC K. pneumoniae CI 138-16357-20362, PmxR (µg/mL)
[5] = tested on: A. baumannii CI Ptyela 100734512:2, PmxR; details: MIC A. baumannii CI Ptyela 100734512:2, PmxR (µg/mL)
[6] = tested on: P. aeruginosa PA9704, PmxR; details: MIC P. aeruginosa PA9704, PmxR (µg/mL)
[7] = tested on: S. aureus ATCC 25923, MSSA; details: MIC S. aureus ATCC 25923, MSSA (µg/mL)
[8] = tested on: K. pneumoniae ATTC BAA-2146, NDM-1 pos; details: MIC K. pneumoniae ATTC BAA-2146, NDM-1 pos (µg/mL)
[9] = tested on: K. pneumoniae CI Koprana 100650661:1, PmxR; experiment: microbe, parasite or virus in culture; format: cell-based, Klebsiella pneumoniae; details: carbapenem & polymyxin resistant clinical isolate; MHB, 5 × 10^5 CFU/mL, 18 h at 37 °C
[10] = tested on: K. pneumoniae CI 138-16357-20362, PmxR; experiment: microbe, parasite or virus in culture; format: cell-based, Klebsiella pneumoniae; details: carbapenem & polymyxin resistant clinical isolate; MHB, 5 × 10^5 CFU/mL, 18 h at 37 °C
HepG2 cells = experiment: Cytotoxicity assay (resazurin assay); format: cell-based, human; details: 4000 cells/well, 24 h incubation with compound, fluorescence 560/590
Experimental: Cytotoxicity to HEK293 and HepG2 cells was determined using the resazurin assay.[67],[68] […] Compounds were then added into each well. After 24 h incubation, 5 μM resazurin was added per well and incubated at 37 °C for 2 h. Fluorescence intensity was then read using a Polarstar Omega with excitation/emission 560/590. The data were then analyzed using GraphPad Prism 6 software. CC50 values were determined using GraphPad Prism 6 software (Inc. La Jolla, CA).

[11] = tested on: A. baumannii CI Ptyela 100734512:2, PmxR; experiment: microbe, parasite or virus in culture; format: cell-based, Acinetobacter baumannii; details: carbapenem & polymyxin resistant clinical isolate; MHB, 5 × 10^5 CFU/mL, 18 h at 37 °C
Experimental: (§1) Bacteria were either obtained from American Type Culture Collection (ATCC; Manassas, VA, USA) or independent academic clinical isolate collections, as listed in Table S2. Bacteria were cultured in nutrient broth (NB; Bacto Laboratories, catalog no. 234000) or Muller Hinton broth (MHB; Bacto Laboratories, catalog no. 211443) at 37 °C overnight with shaking (∼180 rpm). A sample of each culture was then diluted 50-fold in fresh MHB and incubated at 37 °C for 1.5–3 h with shaking (∼180 rpm). Compound stock solutions were prepared as 0.64 or 2.56 mg/mL in water. The compounds, at twice the final desired concentration, were serially diluted 2-fold across the wells of 96-well plates (Polystyrene, Corning, catalogue No. 3370). Mid log phase bacterial cultures (after 1.5–3 h incubation) were diluted to a final concentration of 5 × 10^5 colony forming units (CFU)/mL, and 50 μL was added to each well giving a final compound concentration range of 32 μg/mL to 0.015 μg/mL (128–0.06 μg/mL for colistin and polymyxin B against the polymyxin resistant clinical isolates). MICs were determined visually after 18 h of incubation at 37 °C, with the MIC defined as the lowest compound concentration at which no bacterial growth was visible.
(§2) Table S2. Bacterial strains used for Minimum Inhibitory Concentration (MIC) […]
(§3) Organism Strain Strain description Strain Source
(§4) Escherichia coli ATCC 25922 FDA strain Seattle 1946 ATCC
(§5) Klebsiella pneumoniae ATCC 13883 Control strain ATCC
(§6) Klebsiella pneumoniae ATCC 700603 Multi-drug resistant ATCC
(§7) Klebsiella pneumoniae BAA-2146 Metallo-beta-lactamase- ATCC
(§8) Acinetobacter baumannii ATCC 19606 Type strain ATCC
(§9) Pseudomonas aeruginosa ATCC 27853 Type strain ATCC
(§10) Pseudomonas aeruginosa FADDI-PA070 Clinical isolate, Nation and Li labs, polymyxin resistant Monash University
(§11) Clinical isolate, Wang Hengzhuang, Pseudomonas aeruginosa PA9704 polymyxin resistant University Hospital of […]
(§12) Ptyela Clinical isolate, Ilias Karaiskos and Acinetobacter baumannii Carbapenem & Helen Giamarellou
(§13) Clinical isolate, Medicine, Hygeia
(§14) Klebsiella pneumoniae Koprana Carbapenem, & General Hospital, […]
(§15) Clinical isolate, (Instituto Dante […]
(§16) polymyxin resistant Cardiologia, São […]

[12] = tested on: P. aeruginosa FADDI-PA070, PmxR; format: cell-based, Pseudomonas aeruginosa; details: polymyxin resistant clinical isolate; MHB, 5 × 10^5 CFU/mL, 18 h at 37 °C
Experimental: as §1, §2, §3, §4, §5, §6, §7, §8, §9, §10, §11, §12, §13, §14, §15, §16

[13] = tested on: S. aureus ATCC 25923, MSSA; experiment: microbe, parasite or virus in culture; format: cell-based, Staphylococcus aureus; details: MHB, 5 × 10^5 CFU/mL, read visually after 18 h at 37 °C
Experimental: as §1, §2, §3, §4, §5, §6, §7, §8, §9, §10, §11, §12, §13, §14, §15, §16

P. aeruginosa ATCC 27853 = details: MIC P. aeruginosa ATCC 27853 (µg/mL)
K. pneumoniae ATCC 13883 = details: MIC K. pneumoniae ATCC 13883 (µg/mL)
[14] = tested on: K. pneumoniae ATCC 700603, MDR; details: MIC K. pneumoniae ATCC 700603, MDR(µg/mL)
E. coli ATCC 25922 = details: MIC E. coli ATCC 25922 (µg/mL)
A. baumannii ATCC 19606 [15] = format: cell-based, Acinetobacter baumannii; details: ATCC 19606, 18 h
Experimental: as §1, §2, §3, §4, §5, §6, §7, §8, §9, §10, §11, §12, §13, §14, §15, §16

| SMILES | CC50 (HepG2) | MIC (A. baumannii ATCC 19606 [1]) | MIC [2] | MIC [3] | MIC [4] | MIC [5] | MIC [6] | MIC [7] | MIC [8] | MIC K. pneumoniae CI Koprana 100650661:1, PmxR [9] | MIC K. pneumoniae CI 138-16357-20362, PmxR [10] | HepG2 - CC50 (HepG2 cells) | MIC A. baumannii CI Ptyela 100734512:2, PmxR [11] | MIC P. aeruginosa FADDI-PA070, PmxR [12] | MIC S. aureus ATCC 25923, MSSA [13] | MIC (P. aeruginosa ATCC 27853) | MIC (K. pneumoniae ATCC 13883) | MIC [14] | MIC (E. coli ATCC 25922) | MIC A. baumannii ATCC 19606 (A. baumannii ATCC 19606 [15]) |
| --- | --- | --- | --- | --- | --- | --- | --- | --- | --- | --- | --- | --- | --- | --- | --- | --- | --- | --- | --- | --- |
| CC(C)C[C@@H]1NC(=O)[C@@H](Cc2ccccc2)NC(=O)[C@H](CCN)NC(=O)[C@@H](NC(=O)[C@@H](CO)NC(=O)[C@@H](NC(=O)[C@H](CCN)NC(=O)Nc2ccccc2Cl)[C@@H](C)O)CCNC(=O)[C@H]([C@@H](C)O)NC(=O)[C@H](CCN)NC(=O)[C@H](CCN)NC1=O [Compound 17] ({NH(2-ClPh)-CO}-[Dab]T[dS][Dab][Dab][dF]L[Dab][Dab]T; lactam 4-C) | > 300 µM | > 32 µg/mL | > 32 µg/mL | > 32 µg/mL | > 32 µg/mL | > 32 µg/mL | > 32 µg/mL | > 32 µg/mL | > 32 µg/mL | >32 µg/mL | >32 µg/mL | – | – | – | – | – | – | – | – | – |
| CCCCCCCC(=O)N[C@@H](CCN)C(=O)N[C@H](C(=O)N[C@@H](CCN)C(=O)N[C@H]1CCNC(=O)[C@H]([C@@H](C)O)NC(=O)[C@H](CCN)NC(=O)[C@H](CCN)NC(=O)[C@H](CC(C)C)NC(=O)[C@@H](Cc2ccccc2)NC(=O)[C@H](CCN)NC1=O)[C@@H](C)O [Compound 11, polymyxin B3] (Octanoyl-[Dab]T[Dab][Dab][Dab][dF]L[Dab][Dab]T; lactam 4-C) | > 300 µM | – | > 32 µg/mL | > 128 µg/mL | > 128 µg/mL | > 64 µg/mL | > 128 µg/mL | > 128 µg/mL | – | >128 µg/mL | >128 µg/mL | >300 µM | >64 µg/mL | >32 µg/mL | >128 µg/mL | – | – | – | – | – |
| CCC(C)CCCCC(=O)N[C@@H](CCN)C(=O)N[C@H](C(=O)N[C@@H](CCN)C(=O)N[C@H]1CCNC(=O)[C@H]([C@@H](C)O)NC(=O)[C@H](CCN)NC(=O)[C@H](CCN)NC(=O)[C@H](CC(C)C)NC(=O)[C@@H](CC(C)C)NC(=O)[C@H](CCN)NC1=O)[C@@H](C)O (stereo partly drawn) ({Octanoyl(6-Me)}-[Dab]T[Dab][Dab][Dab][dL]L[Dab][Dab]T; lactam 4-C) | > 300 µM | 0.25 µg/mL (≈ 0.214 µM) | > 32 µg/mL | > 128 µg/mL | 64 µg/mL (≈ 54.7 µM) | > 64 µg/mL | 128 µg/mL (≈ 109 µM) | > 128 µg/mL | 0.25 µg/mL (≈ 0.214 µM) | – | – | – | – | – | – | 0.5 µg/mL (≈ 0.428 µM) | 0.25 µg/mL (≈ 0.214 µM) | 0.25 µg/mL (≈ 0.214 µM) | 0.25 µg/mL (≈ 0.214 µM) | – |
| CCCCCCCC(=O)N[C@@H](CCN)C(=O)N[C@H](C(=O)N[C@@H](CCN)C(=O)N[C@H]1CCNC(=O)[C@H]([C@@H](C)O)NC(=O)[C@H](CCN)NC(=O)[C@H](CCN)NC(=O)[C@H](CC(C)C)NC(=O)[C@@H](Cc2ccccc2)NC(=O)[C@H](CCNC(=O)[C@@H](N)CCC(=O)O)NC1=O)[C@@H](C)O [Compound 32] (Octanoyl-[Dab]T[Dab][Dab][Dab](Glu)[dF]L[Dab][Dab]T; lactam 4-C) | > 300 µM | > 32 µg/mL | > 32 µg/mL | > 32 µg/mL | > 32 µg/mL | > 32 µg/mL | > 32 µg/mL | > 32 µg/mL | – | >32 µg/mL | >32 µg/mL | – | – | – | – | > 32 µg/mL | > 32 µg/mL | > 32 µg/mL | > 32 µg/mL | – |
| CCCCCCCCC1NC(=O)[C@@H](Cc2ccccc2)NC(=O)[C@H](CCN)NC(=O)[C@@H](NC(=O)[C@H](CCN)NC(=O)[C@@H](NC(=O)[C@H](CCN)NC(=O)CCCCCCC)[C@@H](C)O)CCNC(=O)[C@H]([C@@H](C)O)NC(=O)[C@H](CCN)NC(=O)[C@H](CCN)NC1=O (some centres unmarked) [Compound 28] (Octanoyl-[Dab]T[Dab][Dab][Dab][dF][ξGly(octyl)][Dab][Dab]T; lactam 4-C) | – | – | – | – | – | – | – | – | – | – | – | – | – | – | – | – | – | – | – | 1(1) μg/mL |
| CCC(C)CCCCC(=O)N[C@@H](CCN)C(=O)N[C@H](C(=O)N[C@@H](CCN)C(=O)N[C@H]1CCNC(=O)[C@H]([C@@H](C)O)NC(=O)[C@H](CCN)NC(=O)[C@H](CCN)NC(=O)[C@H](CC(C)C)NC(=O)[C@@H](Cc2ccccc2)NC(=O)[C@H](CCN)NC1=O)[C@@H](C)O (some centres unmarked) | > 300 µM | 0.25 µg/mL (≈ 0.208 µM) | 32 µg/mL (≈ 26.6 µM) | 64 µg/mL (≈ 53.2 µM) | 64 µg/mL (≈ 53.2 µM) | 64 µg/mL (≈ 53.2 µM) | 128 µg/mL (≈ 106 µM) | > 64 µg/mL | 0.25 µg/mL (≈ 0.208 µM) | – | – | – | – | – | – | 0.5 µg/mL (≈ 0.415 µM) | 1 µg/mL (≈ 0.831 µM) | 0.5 µg/mL (≈ 0.415 µM) | 1 µg/mL (≈ 0.831 µM) | – |
